From patent US20170173114A1, “METHODS AND COMPOSITIONS FOR INDUCTION OF UCP1 EXPRESSION” (Joslin Diabetes Center, Inc., priority 2014, published 2017)
“Also recorded” adds a separate entry of the source.

Experiments:
[1] = target: T1, Sirt2 (Mus musculus, UniProt Q923E4); test: EX 527 effect on FGF6-induced UCP1 and PTGS2 expression in WT-1 preadipocytes; format: cell-based, murine; conditions: 50 uM pretreatment 3 hours, then EX and FGF6 18 hours
T1 construct: endogenous in cells; host or cells: WT-1 murine brown preadipocytes
T1 sequence (Q923E4 2-737 limits assumed): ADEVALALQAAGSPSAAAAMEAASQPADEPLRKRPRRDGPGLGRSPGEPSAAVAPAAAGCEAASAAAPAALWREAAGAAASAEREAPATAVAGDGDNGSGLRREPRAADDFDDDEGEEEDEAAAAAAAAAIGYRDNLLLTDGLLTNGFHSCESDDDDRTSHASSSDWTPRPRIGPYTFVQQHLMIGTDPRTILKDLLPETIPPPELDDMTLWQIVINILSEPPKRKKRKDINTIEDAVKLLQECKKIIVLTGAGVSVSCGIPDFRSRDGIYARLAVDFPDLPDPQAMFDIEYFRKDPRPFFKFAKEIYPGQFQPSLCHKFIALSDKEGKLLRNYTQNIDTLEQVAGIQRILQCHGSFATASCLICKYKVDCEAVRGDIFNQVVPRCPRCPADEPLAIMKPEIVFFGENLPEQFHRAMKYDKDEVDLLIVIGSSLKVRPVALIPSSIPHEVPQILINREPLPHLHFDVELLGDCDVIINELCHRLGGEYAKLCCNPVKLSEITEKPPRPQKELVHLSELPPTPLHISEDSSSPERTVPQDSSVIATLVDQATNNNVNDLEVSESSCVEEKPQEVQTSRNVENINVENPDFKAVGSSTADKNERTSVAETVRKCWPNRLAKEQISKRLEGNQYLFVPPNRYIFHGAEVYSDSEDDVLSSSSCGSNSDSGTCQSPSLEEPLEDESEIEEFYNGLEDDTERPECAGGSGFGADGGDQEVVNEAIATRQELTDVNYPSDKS
Procedure: (§1) To determine if the […] pathway is utilized by FGF6 to regulate UCP1 expression and mitochondrial function, WT-1 preadipocytes were pretreated with the […] selective inhibitor EX (EX 527; Santa Cruz Biotechnology) at concentrations of 0 uM or 50 uM in growth media (DMEM+10% FBS) for 3 hours. Following EX treatment, the cells were treated with EX and FGF6 for 18 hours.

[2] = target: T2, (Mus musculus, UniProt Q923E4); test: as above; format: cell-based, murine; conditions: 50 uM pretreatment 3 hours, then EX and FGF6 18 hours
T2 construct: endogenous in cells; host or cells: WT-1 murine brown preadipocytes
T2 sequence (Q923E4 2-737 limits assumed): T1 sequence (Q923E4 2-737 limits assumed)
Procedure: as §1

## NC(=O)C1CCCc2c1[nH]c1ccc(Cl)cc21 (centres unmarked) [EX]
[1]
  FGF6-induced UCP1 mRNA expression: inhibited UCP1 expression; also recorded: suppression
[2]
  FGF6-induced PTGS2 expression level: reduced; also recorded: suppression
